Measured values: patent publication US7045311B2, “Whole cell assay systems for cell surface proteases” (Monogram Biosciences, Inc., priority 2001, dated 2006)
Entries after “also recorded” stand apart in the source; their conditions may differ.

How the values were obtained:
Type in all cases: cell-based
ADAM 17 = molecular target: T1, ADAM 17 (Homo sapiens, UniProt P78536); experiment: Whole cell ADAM 17 assay: cleavage of TNF-α-FL by THP-1 cells, capillary electrophoresis; details: for formation of TNF-α-FL cleavage product (ADAM 17 activity): TNF-α-FL substrate, reagent added to the assay
T1 construct: endogenous in cells; host or cells: THP-1 cells (whole, live)
T1 sequence (P78536 215-824): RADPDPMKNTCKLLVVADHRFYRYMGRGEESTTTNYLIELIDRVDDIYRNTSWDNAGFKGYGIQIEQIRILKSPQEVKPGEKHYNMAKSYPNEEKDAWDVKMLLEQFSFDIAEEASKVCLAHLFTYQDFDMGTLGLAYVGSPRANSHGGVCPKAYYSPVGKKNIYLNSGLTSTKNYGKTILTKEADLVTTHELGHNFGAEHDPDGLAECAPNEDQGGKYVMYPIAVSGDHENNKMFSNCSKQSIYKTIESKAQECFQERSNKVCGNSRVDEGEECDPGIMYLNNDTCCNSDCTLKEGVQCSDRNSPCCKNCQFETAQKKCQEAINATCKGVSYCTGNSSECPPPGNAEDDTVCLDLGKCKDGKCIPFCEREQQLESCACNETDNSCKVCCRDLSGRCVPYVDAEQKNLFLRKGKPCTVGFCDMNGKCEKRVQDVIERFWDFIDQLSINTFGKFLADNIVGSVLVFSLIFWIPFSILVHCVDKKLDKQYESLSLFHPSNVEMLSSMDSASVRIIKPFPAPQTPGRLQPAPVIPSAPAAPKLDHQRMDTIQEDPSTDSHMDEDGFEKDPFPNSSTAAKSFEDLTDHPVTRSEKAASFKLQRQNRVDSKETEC
Method: A substrate for a cell surface protease, typically an ADAM, or preferably a plurality of substrates for different proteases, each having a distinct detectable label, is added to a live cell suspension in a buffer. Typically, about 1.5×10^5 cells are used in 50 μL medium. […] The cells are washed three times on ice with buffer (lacking the protein and anti-proteases noted below) before use. A suitable buffer consists of 50 mM HEPES (pH 7.2), 150 mM NaCl, 2 mM MgCl2, 0.1% human serum albumin (HSA), with serine and thiol protease inhibitor cocktail (Roche Diagnostics). Depending on the peptide, nonspecific binding may be blocked by addition of a protein selected from human serum albumin (HSA), bovine serum albumin (BSA), casein (CAS), gamma globulins (GG), and fetal bovine serum (FBS).
All component additions are done on ice, and the tubes are then transferred to a temperature controlled water bath for incubation. The assay mixture is incubated at a fixed temperature for a fixed time, e.g., 37° C. for 1 hr. Following incubation, the tubes are removed from the incubator and placed again on ice.
For experiments employing additional reagents, such as a GPCR agonist or a protein kinase C stimulator such as PMA (phorbol myristate acetate), the additional reagent is added at the beginning of the incubation period.
A suitable separation medium consists of 1% PEO in 50 mM HEPES (pH 7.2). […] In a typical separation, detection occurs at 5 mm down from the injection site (cross), an argon-ion laser is used as the excitation source, PMT is typically set at 600V to 900V, and gain is set to 5 μA/V at a frequency of 10 Hz. The 10× objective is used, and the sampling rate is 200/sec. Well volumes are typically 2 μL.
For peak analysis, time normalized peak areas for peptide cleavage products are divided by time normalized fluorescein (or aminomethyl fluorescein) peak areas to arrive at the product/fluorescein normalized area ratios.
A TNF-α peptide fragment, known to be a substrate for ADAM 17, was labeled at the N-terminus with fluorescein. […] After a one-hour incubation, aminomethyl fluorescein was added as an electrophoretic marker, and the reaction supernatant was separated by capillary electrophoresis.

ADAM 10 [1] = experiment: Whole cell ADAM 10 assay in HEK-293 cells
Method: (§1) For experiments involving GPCR's, adherent cells are plated into 96-well plates at 5×10^4 cells/well and serum starved for 18–24 hr prior to use. A suitable buffer comprises 10 mM HEPES (pH 7.2), 1× HANKS, 0.1% human serum albumin (HSA), and serine/thiol protease inhibitor cocktail (Roche Diagnostics). Cells are washed three times with the HANKS-HEPES buffer, lacking protein and anti-protease, prior to use.
(§2) The products of the assays are conveniently analyzed by capillary electrophoresis on a microfluidic LabCard™ (ACLARA Biosciences, Inc.). Typically, a LabCard™ containing a 64-channel array is used, but no special changes are needed to run the assay on a 96- or 32-channel card, or other configuration.
(§3) The configuration of channels for each separation on a LabCard is shown schematically in FIG. 13. The channel network may be a double-T network as shown or a cross network, i.e. where wells 110 and 114 in the figure are directly opposed. A suitable separation medium consists of 1% PEO in 50 mM HEPES (pH 7.2). In a typical separation, sample is injected from well 110 to well 114 at an injection voltage of 550V for e.g. 35 sec. Separation is carried out from well 104 to well 106 for e.g. 20 sec., with the voltages of 0V, 380V, 800V, and 380V in wells 104, 110, 106, and 114, respectively, resulting in a field strength of 455V/cm. […]

ADAM 10 [2] = experiment: Whole cell ADAM 10 assay: cleavage of CD40L-FL by Rat-1 cells with GPCR ligands; details: CD40L-FL substrate
Method: as §1, §2, §3

Row | Compound | formation of TNF-α-FL cleavage product (ADAM 17 activity) (ADAM 17) | ADAM 10 activity (ADAM 10 [1]) | ADAM 10 activity (amount of CD40L-FL cleavage product) (ADAM 10 [2]) | further results
1 | CNC(=O)[C@H](Cc1c[nH]c2ccccc12)NC(=O)[C@@H](CC(=O)NO)CC(C)C [GM6001] | completely inhibited | – | – | –
2 | CCCCCCCCCCCCCC(=O)O[C@@H]1[C@@H](C)[C@@]2(O)[C@@H](C=C(CO)C[C@]3(O)C(=O)C(C)=C[C@@H]23)[C@@H]2C(C)(C)[C@]12OC(C)=O [PMA, phorbol myristate acetate] | significantly lower; also recorded: significantly reduced | decline | – | –
3 | C[N+](C)(C)CCOC(N)=O [carbachol] | – | activated | – | –
4 | OC[C@H]1O[C@@](CO)(O[C@H]2O[C@H](CO)[C@@H](O)[C@H](O)[C@H]2O)[C@@H](O)[C@@H]1O [sucrose] | – | – | – | TNF-α-FL cleavage activity on addition of sucrose in the presence of PMA (ADAM 17; 450 mM sucrose with PMA): restored the activity
5 | endothelin-1: known ligand for GPCRs (CSCSSLMDKECVYFCHLDIIW) | – | – | decreased | –
6 | lysophosphatidic acid [LPA] | – | – | increased | –
